test system: PEER; assay: selective drug sensitivity score (sDSS, relative to normal bone marrow) (sDSS (score)); higher = more potent and effective on the cell line relative to normal bone marrow cells; conditions: 72 h
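Note: ALL cell lines in 384-well plates, five doses spanning 10,000-fold, each plate scaled between vehicle and 100 µmol/L benzalkonium chloride controls, sDSS an adapted area-under-curve metric.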

Question: With `Cn1cc(C2=C(c3cn(C4CCN(Cc5ccccn5)CC4)c4ccccc34)C(=O)NC2=O)c2ccccc21` [Enzastaurin] (top concentration 10000 nM) as the molecule, how does the “selective drug sensitivity score” value read?
Answer: 6.66

Question: How did the “selective drug sensitivity score” value turn out when `NS(=O)(=O)NCCNc1nonc1/C(=N/O)Nc1ccc(F)c(Br)c1` [Epacadostat] (top concentration 10000 nM) was run?
Answer: 0.14

Question: Which “selective drug sensitivity score” value does the source give for `CCOc1ccccc1-n1c(C(C)N2CCN(C(=O)COc3ccc(Cl)cc3)CC2)nc2ccccc2c1=O` (stereo not given) [Erastin] (top concentration 10000 nM) here?
Answer: 7.94

Question: Which “selective drug sensitivity score” value does the source give for `COc1cc(OC)cc(N(CCNC(C)C)c2ccc3ncc(-c4cnn(C)c4)nc3c2)c1` [Erdafitinib] (top concentration 1000 nM) here?
Answer: -0.36

Question: For `CC(C)(C)NC(=O)[C@H]1CC[C@H]2[C@@H]3CC[C@H]4NC(=O)C=C[C@]4(C)[C@H]3CC[C@]12C` [Finasteride] (top concentration 10000 nM), which “selective drug sensitivity score” value is on record?
Answer: -0.52

Question: Which “selective drug sensitivity score” value does the source give for `O=c1[nH]c(=O)n([C@H]2C[C@H](O)[C@@H](CO)O2)cc1F` [Floxuridine] (top concentration 10000 nM) here?
Answer: 14.2

Question: For `CNc1nc(Nc2cn(C(C)(C)C#N)nc2C)ncc1C(F)(F)F` [GNE-0877] (top concentration 1000 nM), which “selective drug sensitivity score” value is on record?
Answer: 0

Question: How did the “selective drug sensitivity score” value turn out when `CCCc1cc(C)[nH]c(=O)c1CNC(=O)c1cc(-c2ccnc(N3CCN(C)CC3)c2)cc2c1cnn2C(C)C` [GSK343] (top concentration 1000 nM) was run?
Answer: 0

Question: `O=C(O)c1ccc(O)c2ncccc12` [IOX-1] (top concentration 100000 nM) was tested. Which “selective drug sensitivity score” value did it give?
Answer: 4.34

test system: P30-OHKUBO; assay: as above; conditions: 72 h

Question: Which “selective drug sensitivity score” value does the source give for `CCCCCOC(=O)Nc1nc(=O)n([C@@H]2O[C@H](C)[C@@H](O)[C@H]2O)cc1F` [Capecitabine] (top concentration 10000 nM) here?
Answer: -0.06

Question: For `Nc1nc(Cl)nc2c1ncn2[C@H]1C[C@H](O)[C@@H](CO)O1` [Cladribine] (top concentration 1000 nM), which “selective drug sensitivity score” value is on record?
Answer: 8.06

Question: For `CCN(CC)CCOc1ccc(/C(=C(/Cl)c2ccccc2)c2ccccc2)cc1` [Clomifene] (top concentration 10000 nM), which “selective drug sensitivity score” value is on record?
Answer: 3.22

Question: With `CO[C@@H](C(=O)N1Cc2[nH]nc(NC(=O)c3ccc(N4CCN(C)CC4)cc3)c2C1)c1ccccc1` [Danusertib] (top concentration 10000 nM) as the molecule, how does the “selective drug sensitivity score” value read?
Answer: 20

Question: Which “selective drug sensitivity score” value does the source give for `CC[C@@](C)(Nc1ccnc(-c2c[nH]c3ncccc23)n1)C(=O)NCC(F)(F)F` [Decernotinib] (top concentration 10000 nM) here?
Answer: -3.94

Question: `CN1CCN(c2ccc3nc(-c4c(N)c5c(F)cccc5[nH]c4=O)[nH]c3c2)CC1` [Dovitinib] (top concentration 10000 nM) was tested. Which “selective drug sensitivity score” value did it give?
Answer: 0.36

Question: `CC(C)(O)CNc1nc(Nc2ccnc(C(F)(F)F)c2)nc(-c2cccc(C(F)(F)F)n2)n1` [Enasidenib] (top concentration 10000 nM) was tested. Which “selective drug sensitivity score” value did it give?
Answer: 1.2

Question: Which “selective drug sensitivity score” value does the source give for `CN1CCN(c2ccc(C(=O)Nc3n[nH]c4ccc(Cc5cc(F)cc(F)c5)cc34)c(NC3CCOCC3)c2)CC1` [Entrectinib] (top concentration 1000 nM) here?
Answer: -1.1

Question: Which “selective drug sensitivity score” value does the source give for `CNC(=O)c1ccc(N2C(=S)N(c3ccc(C#N)c(C(F)(F)F)c3)C(=O)C2(C)C)cc1F` [Enzalutamide] (top concentration 10000 nM) here?
Answer: -0.52

Question: Which “selective drug sensitivity score” value does the source give for `Cn1cc(C2=C(c3cn(C4CCN(Cc5ccccn5)CC4)c4ccccc34)C(=O)NC2=O)c2ccccc21` [Enzastaurin] (top concentration 10000 nM) here?
Answer: 3.46

Question: Which “selective drug sensitivity score” value does the source give for `NS(=O)(=O)NCCNc1nonc1/C(=N/O)Nc1ccc(F)c(Br)c1` [Epacadostat] (top concentration 10000 nM) here?
Answer: -0.06

Question: For `CCOc1ccccc1-n1c(C(C)N2CCN(C(=O)COc3ccc(Cl)cc3)CC2)nc2ccccc2c1=O` (stereo not given) [Erastin] (top concentration 10000 nM), which “selective drug sensitivity score” value is on record?
Answer: 9.54

Question: How did the “selective drug sensitivity score” value turn out when `COc1cc(OC)cc(N(CCNC(C)C)c2ccc3ncc(-c4cnn(C)c4)nc3c2)c1` [Erdafitinib] (top concentration 1000 nM) was run?
Answer: 1.74

Question: Which “selective drug sensitivity score” value does the source give for `CC(C)(C)NC(=O)[C@H]1CC[C@H]2[C@@H]3CC[C@H]4NC(=O)C=C[C@]4(C)[C@H]3CC[C@]12C` [Finasteride] (top concentration 10000 nM) here?
Answer: -0.52

Question: `O=c1[nH]c(=O)n([C@H]2C[C@H](O)[C@@H](CO)O2)cc1F` [Floxuridine] (top concentration 10000 nM) was tested. Which “selective drug sensitivity score” value did it give?
Answer: 37

Question: How did the “selective drug sensitivity score” value turn out when `CNc1nc(Nc2cn(C(C)(C)C#N)nc2C)ncc1C(F)(F)F` [GNE-0877] (top concentration 1000 nM) was run?
Answer: 0

Question: Which “selective drug sensitivity score” value does the source give for `CCCc1cc(C)[nH]c(=O)c1CNC(=O)c1cc(-c2ccnc(N3CCN(C)CC3)c2)cc2c1cnn2C(C)C` [GSK343] (top concentration 1000 nM) here?
Answer: 0

Question: With `O=C(O)c1ccc(O)c2ncccc12` [IOX-1] (top concentration 100000 nM) as the molecule, how does the “selective drug sensitivity score” value read?
Answer: 3.04

test system: KARPAS-45; assay: as above; conditions: 72 h

Question: `CCCCCOC(=O)Nc1nc(=O)n([C@@H]2O[C@H](C)[C@@H](O)[C@H]2O)cc1F` [Capecitabine] (top concentration 10000 nM) was tested. Which “selective drug sensitivity score” value did it give?
Answer: -0.06

Question: With `Nc1nc(Cl)nc2c1ncn2[C@H]1C[C@H](O)[C@@H](CO)O1` [Cladribine] (top concentration 1000 nM) as the molecule, how does the “selective drug sensitivity score” value read?
Answer: -15.7

Question: Which “selective drug sensitivity score” value does the source give for `CCN(CC)CCOc1ccc(/C(=C(/Cl)c2ccccc2)c2ccccc2)cc1` [Clomifene] (top concentration 10000 nM) here?
Answer: 1.22

Question: `CO[C@@H](C(=O)N1Cc2[nH]nc(NC(=O)c3ccc(N4CCN(C)CC4)cc3)c2C1)c1ccccc1` [Danusertib] (top concentration 10000 nM) was tested. Which “selective drug sensitivity score” value did it give?
Answer: 8.94

Question: With `CC[C@@](C)(Nc1ccnc(-c2c[nH]c3ncccc23)n1)C(=O)NCC(F)(F)F` [Decernotinib] (top concentration 10000 nM) as the molecule, how does the “selective drug sensitivity score” value read?
Answer: -3.94

Question: Which “selective drug sensitivity score” value does the source give for `CN1CCN(c2ccc3nc(-c4c(N)c5c(F)cccc5[nH]c4=O)[nH]c3c2)CC1` [Dovitinib] (top concentration 10000 nM) here?
Answer: 0.26

Question: For `CC(C)(O)CNc1nc(Nc2ccnc(C(F)(F)F)c2)nc(-c2cccc(C(F)(F)F)n2)n1` [Enasidenib] (top concentration 10000 nM), which “selective drug sensitivity score” value is on record?
Answer: 4.1

Question: How did the “selective drug sensitivity score” value turn out when `CN1CCN(c2ccc(C(=O)Nc3n[nH]c4ccc(Cc5cc(F)cc(F)c5)cc34)c(NC3CCOCC3)c2)CC1` [Entrectinib] (top concentration 1000 nM) was run?
Answer: -0.9

Question: How did the “selective drug sensitivity score” value turn out when `CNC(=O)c1ccc(N2C(=S)N(c3ccc(C#N)c(C(F)(F)F)c3)C(=O)C2(C)C)cc1F` [Enzalutamide] (top concentration 10000 nM) was run?
Answer: -0.82

Question: How did the “selective drug sensitivity score” value turn out when `Cn1cc(C2=C(c3cn(C4CCN(Cc5ccccn5)CC4)c4ccccc34)C(=O)NC2=O)c2ccccc21` [Enzastaurin] (top concentration 10000 nM) was run?
Answer: 4.86

Question: `NS(=O)(=O)NCCNc1nonc1/C(=N/O)Nc1ccc(F)c(Br)c1` [Epacadostat] (top concentration 10000 nM) was tested. Which “selective drug sensitivity score” value did it give?
Answer: -0.26

Question: `CCOc1ccccc1-n1c(C(C)N2CCN(C(=O)COc3ccc(Cl)cc3)CC2)nc2ccccc2c1=O` (stereo not given) [Erastin] (top concentration 10000 nM) was tested. Which “selective drug sensitivity score” value did it give?
Answer: 8.24

Question: How did the “selective drug sensitivity score” value turn out when `COc1cc(OC)cc(N(CCNC(C)C)c2ccc3ncc(-c4cnn(C)c4)nc3c2)c1` [Erdafitinib] (top concentration 1000 nM) was run?
Answer: -0.06

Question: For `CC(C)(C)NC(=O)[C@H]1CC[C@H]2[C@@H]3CC[C@H]4NC(=O)C=C[C@]4(C)[C@H]3CC[C@]12C` [Finasteride] (top concentration 10000 nM), which “selective drug sensitivity score” value is on record?
Answer: -0.52

Question: How did the “selective drug sensitivity score” value turn out when `O=c1[nH]c(=O)n([C@H]2C[C@H](O)[C@@H](CO)O2)cc1F` [Floxuridine] (top concentration 10000 nM) was run?
Answer: -1.38

Question: With `CNc1nc(Nc2cn(C(C)(C)C#N)nc2C)ncc1C(F)(F)F` [GNE-0877] (top concentration 1000 nM) as the molecule, how does the “selective drug sensitivity score” value read?
Answer: 0

Question: How did the “selective drug sensitivity score” value turn out when `CCCc1cc(C)[nH]c(=O)c1CNC(=O)c1cc(-c2ccnc(N3CCN(C)CC3)c2)cc2c1cnn2C(C)C` [GSK343] (top concentration 1000 nM) was run?
Answer: 0

Question: With `O=C(O)c1ccc(O)c2ncccc12` [IOX-1] (top concentration 100000 nM) as the molecule, how does the “selective drug sensitivity score” value read?
Answer: 4.04
